# Assay results taken from PubChem BioAssay AID2060488 (Molecular Pharmacology Branch, DTP, NCI, 2025).
# Test system: 966289-007-R4-J1-PDC complex spheroid viability
# Assay: Anticancer human tumor 966289-007-R4-J1-PDC patient-derived pancreatic adenocarcinoma cell line growth inhibition [GQUAD]
# Details: for IC50: curve of first compound; for viability, T/C: stronger effect = lower value
# Text: DNA G-quadruplex Stabilizer Agents in Combinations in Complex Spheroids
# A high-throughput screen of multi-cell type tumor spheroids was designed to identify active combinations of DNA G-quadruplex stabilizer agents and targeted small molecules. Complex spheroids include a stromal component modeled by human endothelial cells (HUVEC) and fibroblasts modeled by human mesenchymal stem cells (MSCs). The concentration ranges selected for each drug and investigational agent were based upon clinically achievable concentrations if the clinical Cmax of the agent was known.
# Compounds. The drugs and investigational agents: pidnarulex (CX-5461; NSC782164), APTO-253 (NSC789042), BRACO-19 (NSC847499), peposertib (NSC802822), ceralasertib (NSC780249), elimusertib (NSC800525), camonsertib (NSC841442), AZD-1390 (NSC803789), olaparib (NSC753686), talazoparib (NSC767125), ART-558 (NSC835418), sotorasib (NSC818433), MRTX-1133 (NSC836407), SN-38 (NSC673596), topotecan (NSC609699), etoposide (NSC141540), doxorubicin (NSC123127), gemcitabine (NSC613327), 5-fluorouracil (NSC19893), paclitaxel (NSC125973), vemurafenib (NSC761431), panobinostat (NSC761190), R-306465 (JNJ-16241199; NSC773264), adavosertib (NSC754352), TP-3654 (NSC805149), carboplatin (NSC241240), KSQ-4279 (NSC840948), and staurosporine (NSC755774) were obtained from the National Cancer Institute (NCI) Developmental Therapeutics Program Chemical Repository (34). The FDA-approved anticancer drug set is available from the NCI Developmental Therapeutics Program. […] The stock solutions were prepared in dimethyl sulfoxide (DMSO, Sigma-Aldrich, St. Louis, MO, cat. D2650) at 800-fold the tested concentration and stored at -70 degrees C prior to their use. All drugs and investigational agents were tested over a range starting from a high concentration at or near the clinical Cmax and decreasing in half-log increments. If the clinical Cmax for an agent had not been determined, the highest concentration tested was 10 microM.
# 2.3 Cell Culture. All cells were maintained in an incubator at 37 degrees C and 5% CO2 with 95% humidity. The PDC lines were cultured according to standard operating procedures established by the NCI PDMR. All PDCs were thawed and cultured in Matrigel-coated flasks prepared with a working solution of 1X Ham's F-12 nutrient mix, without supplementation (Invitrogen, cat. 11765054), 100 U/mL penicillin-streptomycin (Invitrogen, cat. 15140122), and 2.5% Matrigel (Corning Inc., cat. 354248) for the first three passages. The 857933-349-R-J2-PDC line was cultured in 6C/Colon 1B media, which includes advanced DMEM/F-12 (Thermo Fisher Scientific, cat. 12634028), 10 mM HEPES (Thermo Fisher Scientific, cat. 15630080), 1X GlutaMAX supplement (Thermo Fisher Scientific, cat. 35050061), 0.1 mg/mL primocin (InvivoGen, cat. ant-pm-2), 10% defined fetal bovine serum, heat inactivated (HyClone Laboratories Inc., cat. SH30070.03HI), 50% L-WRN conditioned media (ATCC, cat. CRL-3276), 1.25 mM N-Acetyl-L-cysteine (Sigma-Aldrich, cat. A9165), 10 mM nicotinamide (Sigma-Aldrich, cat. N0636), 1X B-27 supplement (Thermo Fisher Scientific, cat. 17504044), 1X N-2 supplement (Thermo Fisher Scientific, cat. 17502048), 10 microM Y-27632 dihydrochloride (Tocris Bioscience, cat. 1254), and 50 ng/mL human EGF recombinant protein (Thermo Fisher Scientific, cat. PHG0311). The 485176-168-R4-J1-PDC line was cultured in Panc media, which includes all 6C/Colon 1B media components plus 100 ng/mL human FGF-10 (Thermo Fisher Scientific, cat. 100-26), 500 nM SB-431542 (Selleckchem, cat. S1067), and gastrin (Tocris, cat. 3006).
# […]
# [1] = second compound 0.0316 µM, first compound 0.0316 µM
# [2] = second compound 0.0316 µM, first compound 0.1 µM
# [3] = second compound 0.0316 µM, first compound 0.316 µM
# [4] = second compound 0.0316 µM, first compound 1 µM
# [5] = second compound 0.0316 µM, first compound 3.16 µM
# [6] = second compound 0.0316 µM, first compound 10 µM
# [7] = second compound 0.1 µM, first compound 0.0316 µM
# [8] = second compound 0.1 µM, first compound 0.1 µM
# [9] = second compound 0.1 µM, first compound 0.316 µM
# [10] = second compound 0.1 µM, first compound 1 µM
# [11] = second compound 0.1 µM, first compound 3.16 µM
# [12] = second compound 0.1 µM, first compound 10 µM
# [13] = second compound 0.316 µM, first compound 0.0316 µM
# [14] = second compound 0.316 µM, first compound 0.1 µM
# [15] = second compound 0.316 µM, first compound 0.316 µM
# [16] = second compound 0.316 µM, first compound 1 µM
# [17] = second compound 0.316 µM, first compound 3.16 µM
# [18] = second compound 0.316 µM, first compound 10 µM
# [19] = second compound 1 µM, first compound 0.0316 µM
# [20] = second compound 1 µM, first compound 0.1 µM
# [21] = second compound 1 µM, first compound 0.316 µM
# [22] = second compound 1 µM, first compound 1 µM
# [23] = second compound 1 µM, first compound 3.16 µM
# [24] = second compound 1 µM, first compound 10 µM
# [25] = second compound 3.16 µM, first compound 0.0316 µM
# [26] = second compound 3.16 µM, first compound 0.1 µM
# [27] = second compound 3.16 µM, first compound 0.316 µM
# [28] = second compound 3.16 µM, first compound 1 µM
# [29] = second compound 3.16 µM, first compound 3.16 µM
# [30] = second compound 3.16 µM, first compound 10 µM
# [31] = second compound 10 µM, first compound 0.0316 µM
# [32] = second compound 10 µM, first compound 0.1 µM
# [33] = second compound 10 µM, first compound 0.316 µM
# [34] = second compound 10 µM, first compound 1 µM
# [35] = second compound 10 µM, first compound 3.16 µM
# [36] = second compound 10 µM, first compound 10 µM
# 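Further: spheroids exposed to the agents for seven days before readout.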
# 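Wherever viability, T/C is given: percent viability relative to DMSO vehicle control wells taken as 100%.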
compound,measurement,setting,value
C=CCn1c(=O)c2cnc(Nc3ccc(N4CCN(C)CC4)cc3)nc2n1-c1cccc(C(C)(C)O)n1 + Cc1[nH]c2ccc(F)cc2c1-c1nc2c3cccnc3c3ncccc3c2[nH]1,IC50,second compound 0.0316 µM,1830 nM
same,IC50,second compound 0.1 µM,1830 nM
same,IC50,second compound 0.316 µM,1840 nM
same,IC50,second compound 1 µM,1850 nM
same,IC50,second compound 3.16 µM,1760 nM
same,IC50,second compound 10 µM,1760 nM
same,"viability, T/C",[1],101%
same,"viability, T/C",[2],96.7%
same,"viability, T/C",[3],112%
same,"viability, T/C",[4],99.7%
same,"viability, T/C",[5],4.85%
same,"viability, T/C",[6],1.9%
same,"viability, T/C",[7],99.5%
same,"viability, T/C",[8],98.9%
same,"viability, T/C",[9],110%
same,"viability, T/C",[10],99.9%
same,"viability, T/C",[11],4.92%
same,"viability, T/C",[12],2.17%
same,"viability, T/C",[13],97.5%
same,"viability, T/C",[14],103%
same,"viability, T/C",[15],111%
same,"viability, T/C",[16],98%
same,"viability, T/C",[17],7.35%
same,"viability, T/C",[18],1.74%
same,"viability, T/C",[19],95.7%
same,"viability, T/C",[20],98.3%
same,"viability, T/C",[21],111%
same,"viability, T/C",[22],100%
same,"viability, T/C",[23],6.22%
same,"viability, T/C",[24],2%
same,"viability, T/C",[25],102%
same,"viability, T/C",[26],109%
same,"viability, T/C",[27],109%
same,"viability, T/C",[28],92.9%
same,"viability, T/C",[29],5.37%
same,"viability, T/C",[30],2.62%
same,"viability, T/C",[31],106%
same,"viability, T/C",[32],107%
same,"viability, T/C",[33],109%
same,"viability, T/C",[34],93.5%
same,"viability, T/C",[35],4.68%
same,"viability, T/C",[36],2.33%
Cc1cccc(N(C)C(=O)C2C(O)CCN2c2nc(C)cc(C(F)(F)F)c2C#N)c1 (stereo unspecified) + Cc1[nH]c2ccc(F)cc2c1-c1nc2c3cccnc3c3ncccc3c2[nH]1,IC50,second compound 0.0316 µM,> 10000 nM
same,IC50,second compound 0.1 µM,> 10000 nM
same,IC50,second compound 0.316 µM,> 10000 nM
same,IC50,second compound 1 µM,> 10000 nM
same,IC50,second compound 3.16 µM,> 10000 nM
same,IC50,second compound 10 µM,> 10000 nM
same,"viability, T/C",[1],109%
same,"viability, T/C",[2],90.5%
same,"viability, T/C",[3],108%
same,"viability, T/C",[4],90.6%
same,"viability, T/C",[5],106%
same,"viability, T/C",[6],104%
same,"viability, T/C",[7],109%
same,"viability, T/C",[8],98.6%
same,"viability, T/C",[9],97.2%
same,"viability, T/C",[10],101%
same,"viability, T/C",[11],106%
same,"viability, T/C",[12],103%
same,"viability, T/C",[13],97.6%
same,"viability, T/C",[14],104%
same,"viability, T/C",[15],98.1%
same,"viability, T/C",[16],104%
same,"viability, T/C",[17],99.7%
same,"viability, T/C",[18],106%
same,"viability, T/C",[19],102%
same,"viability, T/C",[20],96.8%
same,"viability, T/C",[21],98.7%
same,"viability, T/C",[22],106%
same,"viability, T/C",[23],97.2%
same,"viability, T/C",[24],110%
same,"viability, T/C",[25],104%
same,"viability, T/C",[26],104%
same,"viability, T/C",[27],110%
same,"viability, T/C",[28],107%
same,"viability, T/C",[29],113%
same,"viability, T/C",[30],114%
same,"viability, T/C",[31],107%
same,"viability, T/C",[32],102%
same,"viability, T/C",[33],110%
same,"viability, T/C",[34],104%
same,"viability, T/C",[35],103%
same,"viability, T/C",[36],113%
Nc1ccn(C2OC(CO)C(O)C2(F)F)c(=O)n1 (stereo unspecified) + Cc1[nH]c2ccc(F)cc2c1-c1nc2c3cccnc3c3ncccc3c2[nH]1,IC50,second compound 0.0316 µM,< 31.6 nM
same,IC50,second compound 0.1 µM,< 31.6 nM
same,IC50,second compound 0.316 µM,< 31.6 nM
same,IC50,second compound 1 µM,< 31.6 nM
same,IC50,second compound 3.16 µM,< 31.6 nM
same,IC50,second compound 10 µM,< 31.6 nM
same,"viability, T/C",[1],7.33%
same,"viability, T/C",[2],1.13%
same,"viability, T/C",[3],0.84%
same,"viability, T/C",[4],0.84%
same,"viability, T/C",[5],1.15%
same,"viability, T/C",[6],0.76%
same,"viability, T/C",[7],7.75%
same,"viability, T/C",[8],1%
same,"viability, T/C",[9],1.28%
same,"viability, T/C",[10],1.1%
same,"viability, T/C",[11],0.83%
same,"viability, T/C",[12],0.76%
same,"viability, T/C",[13],5.74%
same,"viability, T/C",[14],1.09%
same,"viability, T/C",[15],1.33%
same,"viability, T/C",[16],0.83%
same,"viability, T/C",[17],0.67%
same,"viability, T/C",[18],0.86%
same,"viability, T/C",[19],7.53%
same,"viability, T/C",[20],0.98%
same,"viability, T/C",[21],1.01%
same,"viability, T/C",[22],0.85%
same,"viability, T/C",[23],0.92%
same,"viability, T/C",[24],0.83%
same,"viability, T/C",[25],4.68%
same,"viability, T/C",[26],1.2%
same,"viability, T/C",[27],1.1%
same,"viability, T/C",[28],0.82%
same,"viability, T/C",[29],1.7%
same,"viability, T/C",[30],0.93%
same,"viability, T/C",[31],2.75%
same,"viability, T/C",[32],1.07%
same,"viability, T/C",[33],0.98%
same,"viability, T/C",[34],0.76%
same,"viability, T/C",[35],1.44%
same,"viability, T/C",[36],0.94%
